Experimental data reported in article PMC3830699 (2013).

Test system: 144 ydaO (RNA, riboswitch) GGGAAAACAAAUCGCUUAAUCUGAAAUCAGAGCGGGGGACCCAAUAGAACGGCUUUUUGCCGUUGGGGUGAAUCCUUUUUAGGUAGGGCUAACUCUCAUAUGCCCGAAUCCGUCAGCUAACCUCGUAAGCGUUCGUGAGAGGAGAU
Assay: in-line probing
Settings: low millimolar; tested to 3.16 mM; taken as the shorter construct of b32

binding: weak
SMILES: Nc1ncnc2c1ncn2[C@@H]1O[C@H](COP(=O)(O)OP(=O)(O)OP(=O)(O)O)[C@@H](O)[C@H]1O
